Test results taken from US5965582A, “N-benzylindole and benzopyrazole derivatives with anti-asthmatic, anti-allergic, anti-inflammatory and immunemodulating effect” (ASTA Medica Aktiengesellschaft, priority 1994, dated 1999).
Counter-ions that a name gives are not always drawn.

Columns and labels:
[1] = test system: eosinophilia in the lavage; test: Late phase eosinophilia model in sensitised guinea pigs (bronchoalveolar lavage); assay type: in vivo, guinea pigs (Pirbright White)
Method: The in vitro investigations with D-22557 and D-22558 were continued in vivo (late phase eosinophilia model) in sensitised guinea pigs
Male guinea pigs (Pirbright White, 200-250 g. Charles River Wiga, Sulfeld) were actively sensitised using a s.c. injection cf ovalbumin (10μg+100 mg aluminium hydroxide) and boosted 2 weeks later. One week after the booster injection the animals were exposed for 30 seconds to an aerosol made from 0.5% ovalbumin solution. 24 hours later brochoalveolar lavage (BAL) was carried out with 2×5 ml physiol. salt solution in animals sacrificed using an overdose of pentobarbital sodium and desanguinated. The lavage fluid was pooled, centrifuged for 10 minutes at 400×g and the cell pellet resuspended in 1 ml physiological salt solution. The eosinophiles were counted in a Neubauer chamber after staining by using a Becton Dickinson eosinophile test kit. Percentage Inhibition of the eosinophilia in the lavage was calculated in percent by comparing the eosinophile count of the groups treated with substance with the eosinolphile count of normal (unchallenged) and challenged control groups not treated with the substance. Each group numbered 10 animals. Test substances were either given prophylactically 2 hours before allergen challenge (-2 h) or therapeutically 4 hours after challenge (+4 h). When the therapeutic application was investigated, the animals (all groups) received azelastin (10 μg/kg po) 2 hours before allergen challenge to avoid deaths arising due to the onset of early phase bronchoconstriction.

[2] = test system: allergically-induced histamine release from mast cells of the peritoneal and pleura cavities; test: Inhibition of allergically-induced histamine release in-vitro (CHIR); assay type: cell-based, Sprague-Dawley rats; details: for IC50: allergically-induced histamine release, rat mast cells, in vitro; for CHIR % inhibition: with 10 [μmol/l] (footnote: concentration unit 10,000 nmol/l)
Method: Inhibition of allergically-induced histamine release in-vitro (CHIR)
Meth. […] Sprague-Dawley rats were sensitised against egg albumin (EA) by subcutaneous injection of 30 mg EA with killed Bordetella pertussis bacteria as adjuvant. Four weeks later, the mast cells of the peritoneal and pleura cavities were isolated from these animals. The cells were washed, resuspended in tris gel CM (the composition of tris gel CM buffer is as follows:
the rest is water, the pH value of the solution is 7.6) buffer and pre-incubated with the test substances for 15 minutes at 37° C. The cells were then stimulated at 37° C. by adding the antigen EA to release histamine.

[3] = test system: IL-5 release from murine T-helper cells (D10.G4); test: Inhibition of anti-CD3-induced IL-5-release in vitro (CIL5TC); assay type: cell-based; details: 16 hours
Method: (§1) Inhibition of anti-CD3-induced release of interleucin (IL)-4 (CIL4TC) and IL-5-release (CIL5TC) in vitro
(§2) Murine T-helper cells (D10.G4) were used as IL-4/IL-5-producing cells. These cells were pre-incubated with the test substances for 30 minutes at 37° C. The cells were then stimulated at 37° C. to produce interleucins by adding a monoclonal antibody against the T-cell receptor domain CD3 (anti-CD3). After 16 hours, the cells were centrifuged off and the released interleucins were quantified in the cell supernatant with ELISAs for murine IL-4 and IL-5.

[4] = test system: IL-4 release from murine T-helper cells (D10.G4); test: Inhibition of anti-CD3-induced release of interleucin (IL)-4 in vitro (CIL4TC); assay type: cell-based; details: anti-CD3-induced IL-4 release; for IC50: 16 hours; for CIL4TC % inhibition: with 10 000 nmol/l
Method: as §1, §2

[5] = 5 mg/kg ip, -2 h (before allergen challenge)

Structure (SMILES)	IC50 ([2]; Mast cell) [µM]	IC50 ([3]; Mus musculus) [µM]	IC50 ([4]; Mus musculus) [µM]	CIL4TC % inhibition [4] [%]	further results
Fc1ccc(Cn2cc(CCNc3cccnc3)c3ccccc32)cc1.O=C(O)/C=C\C(=O)O [D-22557, N-(pyridine-3-yl)-2-[1-(4-fluorobenzyl)indole-3-yl]ethylamine maleate]					% Inhibition of the eosinophilia in the lavage ([1]; 0.5 mg/kg ip, -2 h (before allergen challenge)): 59%; % Inhibition of the eosinophilia in the lavage ([1]; 1 mg/kg ip, -2 h (before allergen challenge)): 42%; % Inhibition of the eosinophilia in the lavage [1, 5]: 50%
c1ccc(Cn2cc(CCNc3ccncc3)c3ccccc32)cc1 [D-22685, N-(4-pyridyl-yl)-2-(1-benzylindole-3-yl)ethylamine maleate]		6.89	8.58		CHIR % inhibition [2]: 33%
Fc1ccc(Cn2cc(CCCNc3cccnc3)c3ccccc32)cc1 [D-22686, N-(3-pyridyl-yl)-3-3[1-(4-fluorobenzyl)indole-3-yl]propylamine]	0.2	7.31		41	
Fc1ccc(Cn2cc(CCCNc3ccncc3)c3ccccc32)cc1 [D-22698, N-(4-pyridyl-yl)-3-[1-(4-fluorobenzyl)indole-3-yl]propylamine]		7.77		38	
CCOC(=O)Nc1ccc(OC)nc1NCCCc1cn(Cc2ccc(F)cc2)c2ccccc12 [D-22993]					IC50 [2]: 0.54 µM; IC50 [3]: 6.94 µM; IC50 [4]: 8.97 µM

Continued, in another order:

IC50 ([2]; Mast cell) [µM]	IC50 ([3]; Mus musculus) [µM]	IC50 ([4]; Mus musculus) [µM]	Structure (SMILES)	CIL4TC % inhibition [4] [%]	further results
0.016	1.52	7.97	O=C(Cc1cn(Cc2ccc(F)cc2)c2ccccc12)Nc1ccncc1 [D-22558, N-(4-pyridyl)-[1-(4-fluorobenzyl)indole-3-yl]acetamide]		% Inhibition of the eosinophilia in the lavage [1, 5]: 41%; % Inhibition of the eosinophilia in the lavage ([1]; 10 mg/kg ip, +4 h (after challenge), animals received azelastin 10 μg/kg po 2 hours before challenge): 59%; % Inhibition of the eosinophilia in the lavage ([1]; 10 mg/kg po, -2 h (before allergen challenge)): 23%; % Inhibition of the eosinophilia in the lavage ([1]; 30 mg/kg po, -2 h (before allergen challenge)): 35%
3.4	6.6		CCOC(=O)Nc1ccc(N2CCc3c([nH]c4ccccc34)C2)nc1N [D-22559, N-(6-amino-5-ethoxycarbonylamino-(-2-pyridyl))-1,2,3,4-tetrahydro-β-carboline]	51	
	3.21	5.68	Fc1ccc(Cn2cc(CCNc3ccncc3)c3ccccc32)cc1 [D-22561, N-(4-pyridyl-yl)-2-[1-(4-fluorobenzyl)indole-3-yl]ethylamine maleate]		CHIR % inhibition [2]: 15%
0.4	2.7		CCn1cc(CC(=O)Nc2ccncc2)c2ccccc21 [D-22693, N-(4-pyridyl-yl)-2-(1-ethylindole-3-yl)acetamide]	48	
	2.88	7.29	Cn1cc(CCCNc2ccncc2)c2ccccc21 [D-22697, N-(4-pyridyl-yl)-3-(1-methylindole-3-yl)propylamine]		
0.68	6.24	9.73	CCOC(=O)Nc1ccc(OC)nc1NCCc1cn(Cc2ccccc2)c2ccccc12 [D-22992, N-(3-ethoxycarbonylamino-6-methoxy-(2-pyridyl))-2-(1-benzylindole-3-yl)ethylamine]		
